According to patent US20080008991A1, “SYSTEM AND METHOD FOR OPTIMIZING DRUG THERAPY FOR THE TREATMENT OF DISEASES” (priority 2000, published 2008):
Read-outs that look alike come from different tables or passages of the source.

Key:
[1] = tested on: HIV-1; experiment: NIQ as predictor of virologic outcome at week 24; assay type: in vivo, human (patients)
[2] = Amprenavir plasma trough concentration by LC-MS/MS in treatment-experienced patients; conditions: human, in vivo; median; 12 hours after dosing; amprenavir 1200 mg bid with ritonavir or nelfinavir; 17 patients; read-out: Cmin
Description: Patients were enrolled into three parallel treatment groups that included abacavir 300 mg bid, amprenavir 1200 mg bid, and efavirenz 600 mg daily with either low dose ritonavir at 200 mg BID, high dose ritonavir at 500 mg bid, or nelfinavir 1250 mg bid.
Genotyping (VircoGEN II™, VIRCO) and VIRTUAL PHENOTYPE™ were performed on baseline samples. Viral load data were collected at baseline (mean of two pre-therapy samples) and at week 24. Serial pharmacokinetic samples were collected over 12 hours after week 3 for ritonavir-boosted regimens and after week 2 for nelfinavir-boosted regimens.
Amprenavir concentrations in plasma were determined by a validated LC-MS/MS method.
For amprenavir, nelfinavir, and ritonavir, the concentration 12 hours after dosing was used as the Cmin. For each drug, relationships between viral load change at week 24 and the Cmin, fold-change in resistance, and NIQ were fit to a sigmoidal maximum effect model.

[3] = tested on: HIV; conditions: lopinavir plus efavirenz and 2 NRTIs, cited from earlier work

In the case of CC(C)CN(C[C@@H](O)[C@H](Cc1ccccc1)NC(=O)O[C@H]1CCOC1)S(=O)(=O)c1ccc(N)cc1 [Amprenavir, amprenavir], the “patients with decrease in viral load to <400 copies/ml at week 24” value ([1]; patients achieving NIQ>3.0) is reported as 7/8, the “patients with decrease in viral load to <400 copies/ml at week 24” value ([1]; patients with NIQ<3.0) is reported as 1/9 and the concentration at 12 h [2] is reported as 1270 ng/mL.
In the case of Cc1cccc(C)c1OCC(=O)N[C@@H](Cc1ccccc1)[C@@H](O)C[C@H](Cc1ccccc1)NC(=O)[C@H](C(C)C)N1CCCNC1=O [lopinavir], the “% of patients with viral load below 400 copies/mL at week 24” value (“% of patients” below) ([3]; lopinavir IQ 4-15) is listed as 80%, the “% of patients” value ([3]; lopinavir IQ <4) is listed as 70% and the “% of patients” value ([3]; lopinavir IQ >15) is listed as 100%.
